Source: PMC12013366, “In vitro evaluation of the immunogenic potential of gramicidin S and its photocontrolled analogues” (RSC Medicinal Chemistry, 2025)
Non-standard residues stand in square brackets, D forms with d. Residues, ends and D or L forms follow the SMILES beside them. Orn = NCCC[C@H](N)C(=O)O

Test system: membrane-bound CALR on MDA-MB-231 cells
Assay: CALR exposure, cytofluorimetric measurements
Type: cell-based, human
Details: concentrations higher than IC50 (16 and 32 μM), flow cytometry
Experimental: We performed fluorescence microscopy using an Alexa Fluor 647 anti-CALR antibody for quantifying the CALR exposure on the surface of cells. Confluent monolayer 4T1, HeLa, HepG2 and MDA-MB-231 cell cultures were incubated with GS and GS-derived peptides for 24 h followed by fixation, staining with the antibody and microscopic observation. Using the images, we calculated the total levels of the fluorescence signal per cell in each sample. […] While practically no enhancement in CALR exposure could be detected in the HeLa cell culture, a 4–7-fold enhancement is observed for HepG2 at 32 μM of GS, LMB002-open and LMB033-open. Then 8 and 16 μM of GS caused a 3-fold increase of CALR exposure in breast cancer cell lines 4T1 and MDA-MB-231. We noted no direct dose dependence of CALR release in our experiments. It may stem from the difference in the kinetics of CALR exposure. To examine the time dependence of the CALR exposure, cytofluorimetric experiments were conducted on the MDA-MB-231 cell line (Fig. 9) using an Alexa Fluor 647 anti-CALR antibody. In this experiment, 30 min, 3 h, 6 h and 24 h were the time points for monitoring the fraction of cells expressing CALR on their surface.
This is different from the release kinetics of ATP, which was released from the cytosol of the cells with compromised plasma membranes almost immediately after the treatment with our peptides. […]

Question: With `CC(C)C[C@@H]1NC(=O)[C@H](CCCN)NC(=O)[C@H](C(C)C)NC(=O)[C@@H]2CCCN2C(=O)[C@@H](Cc2ccccc2)NC(=O)[C@H](CC(C)C)NC(=O)[C@H](CCCN)NC(=O)[C@H](C(C)C)NC(=O)[C@@H]2CCCN2C(=O)[C@@H](Cc2ccccc2)NC1=O` [Gramicidin S, gramicidin S] (cyclo(V[Orn]L[dF]PV[Orn]L[dF]P)) as the compound, how does the “incubation time after which all cells exposed CALR on their surface” value read?
Answer: 3 h
